According to patent US20260356846A1, “STATIN DERIVATIVES AND METHODS OF USING THE SAME” (The General Hospital Corporation, priority 2023, published 2026):
Read-outs that look alike come from different tables or passages of the source.

How the values were obtained:
[1] = tested on: STMN2 (WT STMN2-NLuc SH-SY5Y cells); experiment: STMN2 nanoluciferase assay in WT SH-SY5Y cells (Table A: WT TDP-32; Table B: WT HD Luciferase); type: cell-based, human; conditions: Homo sapiens, SH-SY5Y, WT cell line; for maximal fold induction: Emax
Method: (§1) Neuroblastoma cells (ATCC) were cultured in DMEM/F12 (Gibco) supplemented with 10% fetal-bovine serum (Omega) and 1% penicillin-streptomycin (Gibco) at 37 °C with 5% CO2. For knockdown experiments, cells were transfected with SMARTpool ON-TARGETplus siRNA or control siRNA pool (D001810-10) (GE Dharmacon) at a final concentration of 50 nM, for 96 h in two doses (0, 24 h), after complexing with Lipofectamin RNAiMAX (Invitrogen) in Opti-MEM (Gibco) for 10 min.
(§2) WT and TDP-mut (N352S) SH-SY5Y cells were edited using CRISPR-Cas9 to express Nanoluciferase at the C-terminus of both endogenous STMN2 alleles. A single guided RNA targeting STMN2 C-terminus was designed (Benchling webtool) and cloned into pSpCas9-2A-green fluorescent protein (GFP) plasmid (px458-Addgene) using the BbsI restriction site. The sequence for guided RNA targeting STMN2 was: […]. For the repair template, overlapping fragments of 800 bp STMN2 homology arms flanking Nanoluciferase (NLuc, Promega) were generated and ligated into pUC57 backbone. A 42 bp GS-linker was also included 5′ to NLuc to prevent steric hindrance of the reporter to the final STMN2 exon. Fragments were ligated using Gibson Assembly and nucleofected simultaneously with pSpCas9-2A-GFP-gRNA plasmid using the Amaxa Nucleofector (assay A-023). Forty-eight hours following electroporation, cells were collected, and GFP-positive cells sorted and single-cell seeded into 96-well plates using the SH800S Sony cell sorter. Individual clones were expanded and DNA was extracted for PCR amplification of the STMN2 Ex5 genomic locus using primers within NLuc and outside the STMN2 5′ homology arm to confirm presence of the insert. The entire STMN2 coding region and all exon-intron junctions (>500-bp length of each intronic region) were then sequenced to verify the absence of any additional DNA alteration. qPCR analysis was performed with a wild-type isogenic SH-SY5Y cell line that had undergone the mutagenesis attempt but not acquired the insertion mutation during the original screening process.
(§3) TDP-mut STMN2-NLuc SH-SY5Y cells were used in small-molecule screening at ICCB-Longwood. 3000 cells/well were plated in white 384-well plates using a 50 ul sample volume. 24 hours after plating, compounds were added using 100 nl pin transfer. 24 hours later, 25 ul NLuc assay was added to each well according to manufacturer instructions (Promega, Cat #). Plates were shaken for 1 min prior to luminescence readings using EnVision2 machine. DMSO-only and WT STMN2-NLuc cells were included as negative and positive controls respectively on each plate, producing an average Z′score of ~0.7 across the screen. Each library plate was conducted in duplicate, and Z-scores calculated for each compound. For subsequent validation experiments, cell numbers in each well were quantified by hoescht staining at 1 μg/ml for 15 mins at 37C in black, clear bottom plates, prior to imaging at 4× using automated microscopy (ImageXpressMicro). Nuclei were then counted using a custom algorithm, and luciferase assay run as above. Luminescence results were then normalised against cell counts as RLU/cell.
(§4) Each compound was tested in triplicate in log doses ranging 0.01 μM−10 μM. The values are represented in luminescence normalized to the number of cells in the well, wherein darker grey correlates to higher RLU per cell and higher STMN2 protein expression.

[2] = tested on: STMN2 (TDP-mut (N352S) STMN2-NLuc SH-SY5Y cells); experiment: STMN2 nanoluciferase assay in TDP-43 mutant SH-SY5Y cells (Table A: mut TDP-43; Table B: mut HD Luciferase); type: cell-based, human; conditions: mutant TDP-43 cell line; for EC50: Homo sapiens, SH-SY5Y
Method: as §1, §2, §3, §4

[3] = Table B, read-out: EC50, WT HD Luciferase
[4] = Table B, read-out: EC50, mut HD Luciferase
[5] = Table A, read-out: EC50, WT TDP-32
[6] = Table A, read-out: EC50, mut TDP-43

How did the maximal fold induction ([1]; Table B) turn out when `Cc1csc2nc(C3CC3)c(/C=C/[C@@H](O)C[C@@H](O)CC(=O)O)c(-c3ccc(Cl)cc3)c12` [Example I-34, (3R,5S,E)-7-(4-(4-chlorophenyl)-6-cyclopropyl-3-methylthieno[2,3-b]pyridin-5-yl)-3,5-dihydroxyhept-6-enoic acid] was run?
The maximal fold induction was 1.5 to 1.75.

What about the EC50 [1, 3] of the same compound?
Its EC50 is 100 to 500 nM.

What about the EC50 [2, 4] of the same compound?
The EC50 was 50 to 100 nM.

What does the source list for `COCc1c(C2CC2)nc(C2CC2)c(/C=C/[C@@H](O)C[C@@H](O)CC(=O)O)c1-c1ccc(F)cc1C` [II-10, (3R,5S,E)-7-(2,6-dicyclopropyl-4-(4-fluoro-2-methylphenyl)-5-(methoxymethyl)pyridin-3-yl)-3,5-dihydroxyhept-6-enoic acid]?
EC50 [1, 3]: ≤ 10 nM; EC50 [2, 4]: ≤ 10 nM

Which results are given for `Cc1nc2c(-c3ccc(F)cc3)c(/C=C/[C@@H](O)C[C@@H](O)CC(=O)O)c(C3CC3)nc2s1` [Example I-3, (3R,5S,E)-7-(5-cyclopropyl-7-(4-fluorophenyl)-2-methylthiazolo[5,4-b]pyridin-6-yl)-3,5-dihydroxyhept-6-enoic acid]?
EC50 [1, 5]: ≥ 10000 nM; maximal fold induction ([1]; Table B): 1 to 1.25; EC50 [1, 3]: ≥ 500 nM; EC50 [2, 6]: 5000 to 10000 nM; EC50 [2, 4]: ≥ 500 nM; HD Luciferase (mut, Emax) ([2]; Table B): * (means≥1 and <1.25)

How did the EC50 [1, 3] turn out when `COCc1c(C2CC2)nc(C2CC2)c(/C=C/[C@@H](O)C[C@@H](O)CC(=O)O)c1-c1c(F)cccc1Cl` [II-22, (3R,5S,E)-7-(4-(2-chloro-6-fluorophenyl)-2,6-dicyclopropyl-5-(methoxymethyl)pyridin-3-yl)-3,5-dihydroxyhept-6-enoic acid] was run?
The EC50 was 10 to 50 nM.

And the EC50 [2, 4]?
The EC50 was 10 to 50 nM.

What does the source list for `O=C(O)C[C@H](O)C[C@H](O)/C=C/c1c(-c2ccc(F)cc2Cl)cc(C2CC2)nc1C1CCC1` [II-27, (3R,5S,E)-7-(4-(2-chloro-4-fluorophenyl)-2-cyclobutyl-6-cyclopropylpyridin-3-yl)-3,5-dihydroxyhept-6-enoic acid]?
maximal fold induction ([1]; Table B): 1 to 1.25; EC50 [1, 3]: ≥ 500 nM; EC50 [2, 4]: ≥ 500 nM; HD Luciferase (mut, Emax) ([2]; Table B): * (means≥1 and <1.25)

For `CC[C@H](C)C(=O)O[C@H]1C[C@H](O)C=C2C=C[C@H](C)[C@H](CC[C@@H](O)C[C@@H](O)CC(=O)O)[C@H]21` [Pravastatin], which EC50 [1, 5] is on record?
The EC50 was ≥ 10000 nM.

What about the EC50 [2, 6] of the same compound?
Its EC50 is ≥ 10000 nM.

How did the EC50 [1, 3] turn out when `COCc1c(C2CC2)nc(C2CC2)c(/C=C/[C@@H](O)C[C@@H](O)CC(=O)O)c1-c1ccccc1Cl` [II-25, (3R,5S,E)-7-(4-(2-chlorophenyl)-2,6-dicyclopropyl-5-(methoxymethyl)pyridin-3-yl)-3,5-dihydroxyhept-6-enoic acid] was run?
The EC50 was 10 to 50 nM.

And the EC50 [2, 4]?
The EC50 was 10 to 50 nM.

`O=C(O)C[C@H](O)C[C@H](O)/C=C/c1c(C2CC2)nc(C2CC2)c(COC2CC2)c1-c1ccc(Cl)cc1F` [II-23, (3R,5S,E)-7-(4-(4-chloro-2-fluorophenyl)-5-(cyclopropoxymethyl)-2,6-dicyclopropylpyridin-3-yl)-3,5-dihydroxyhept-6-enoic acid] was tested. Which EC50 [1, 3] did it give?
Its EC50 is 10 to 50 nM.

And the EC50 [2, 4]?
The EC50 was 10 to 50 nM.

How did the EC50 [1, 3] turn out when `Cc1csc2c(-c3ccc(F)cc3Cl)c(/C=C/[C@@H](O)C[C@@H](O)CC(=O)O)c(C3CC3)nc12` [Example I-15, (3R,5S,E)-7-(7-(2-chloro-4-fluorophenyl)-5-cyclopropyl-3-methylthieno[3,2-b]pyridin-6-yl)-3,5-dihydroxyhept-6-enoic acid] was run?
Its EC50 is 10 to 50 nM.

And the EC50 [2, 4]?
The EC50 was 10 to 50 nM.
